Reference: patent US20260274856A1, “COVALENT CEREBLON LIGANDS” (C4 THERAPEUTICS, INC., priority 2023, published 2026)

Each compound was assayed against cellular cereblon (CRBN) (Homo sapiens, UniProt Q96SW2) (assay: NanoBRET Target Engagement Assay, competition with pomalidomide tracer in 293T.116 cells). Settings: 2 hours incubation, 293T.116 cells; IP.

**Q.** Which “NanoBRET TE 293T.116 CRBN 2 hours IP nM” value does the source give for `O=C1CCC(Nc2ccc(C3CCNCC3)c(OS(=O)(=O)F)c2)C(=O)N1` (stereo not drawn) [Compound A-31, 5-((2,6-dioxopiperidin-3-yl)amino)-2-(piperidin-4-yl)phenyl sulfurofluoridate] here?
**A.** *** (<= 1 μM is ***)

**Q.** Which “NanoBRET TE 293T.116 CRBN 2 hours IP nM” value does the source give for `O=C1NC(=O)C2(Nc3ccc(S(=O)(=O)F)cc3)CC1C2` [Compound A-33, 4-((2,4-dioxo-3-azabicyclo[3.1.1]heptan-1-yl)amino)benzenesulfonyl fluoride] here?
**A.** ** (<10 μM and >1 μM is **)

**Q.** With `O=C1NC(=O)C2(c3ccc(S(=O)(=O)F)cc3)CC1C2` [Compound A-34, 4-(2,4-dioxo-3-azabicyclo[3.1.1]heptan-1-yl)benzenesulfonyl fluoride] as the compound, how does the “NanoBRET TE 293T.116 CRBN 2 hours IP nM” value read?
**A.** ** (<10 μM and >1 μM is **)

**Q.** With `O=C1CCC(c2ccc(N3CCNCC3)c(OS(=O)(=O)F)c2)C(=O)N1` (stereo not drawn) [Compound A-36, 5-(2,6-dioxopiperidin-3-yl)-2-(piperazin-1-yl)phenyl sulfurofluoridate] as the compound, how does the “NanoBRET TE 293T.116 CRBN 2 hours IP nM” value read?
**A.** *** (<= 1 μM is ***)

Same assay, conditions: 6 hours incubation, 293T.116 cells; IP

**Q.** How did the “NanoBRET TE 293T.116 CRBN 6 hours IP nM” value turn out when `O=C1CCC(Oc2ccc(S(=O)(=O)F)cn2)C(=O)N1` (stereo not drawn) [Compound A-9, 6-((2,6-dioxopiperidin-3-yl)oxy)pyridine-3-sulfonyl fluoride] was run?
**A.** ** (<10 μM and >1 μM is **)

**Q.** With `O=C1CCC(Nc2ccc(C3CCNCC3)c(OS(=O)(=O)F)c2)C(=O)N1` (stereo not drawn) [Compound A-31, 5-((2,6-dioxopiperidin-3-yl)amino)-2-(piperidin-4-yl)phenyl sulfurofluoridate] as the compound, how does the “NanoBRET TE 293T.116 CRBN 6 hours IP nM” value read?
**A.** *** (<= 1 μM is ***)

**Q.** With `O=C1NC(=O)C2(Nc3ccc(S(=O)(=O)F)cc3)CC1C2` [Compound A-33, 4-((2,4-dioxo-3-azabicyclo[3.1.1]heptan-1-yl)amino)benzenesulfonyl fluoride] as the compound, how does the “NanoBRET TE 293T.116 CRBN 6 hours IP nM” value read?
**A.** ** (<10 μM and >1 μM is **)

**Q.** How did the “NanoBRET TE 293T.116 CRBN 6 hours IP nM” value turn out when `O=C1NC(=O)C2(c3ccc(S(=O)(=O)F)cc3)CC1C2` [Compound A-34, 4-(2,4-dioxo-3-azabicyclo[3.1.1]heptan-1-yl)benzenesulfonyl fluoride] was run?
**A.** ** (<10 μM and >1 μM is **)

**Q.** How did the “NanoBRET TE 293T.116 CRBN 6 hours IP nM” value turn out when `O=C1CCC(c2ccc(N3CCNCC3)c(OS(=O)(=O)F)c2)C(=O)N1` (stereo not drawn) [Compound A-36, 5-(2,6-dioxopiperidin-3-yl)-2-(piperazin-1-yl)phenyl sulfurofluoridate] was run?
**A.** *** (<= 1 μM is ***)

Same assay, conditions: 24 hours incubation, 293T.116 cells; IP

**Q.** With `O=C1CCC(Oc2ccc(S(=O)(=O)F)cn2)C(=O)N1` (stereo not drawn) [Compound A-9, 6-((2,6-dioxopiperidin-3-yl)oxy)pyridine-3-sulfonyl fluoride] as the compound, how does the “NanoBRET TE 293T.116 CRBN 24 hours IP nM” value read?
**A.** * (>=10 μM is *)

**Q.** Which “NanoBRET TE 293T.116 CRBN 24 hours IP nM” value does the source give for `O=C1CCC(Nc2ccc(C3CCNCC3)c(OS(=O)(=O)F)c2)C(=O)N1` (stereo not drawn) [Compound A-31, 5-((2,6-dioxopiperidin-3-yl)amino)-2-(piperidin-4-yl)phenyl sulfurofluoridate] here?
**A.** *** (<= 1 μM is ***)

**Q.** `O=C1NC(=O)C2(Nc3ccc(S(=O)(=O)F)cc3)CC1C2` [Compound A-33, 4-((2,4-dioxo-3-azabicyclo[3.1.1]heptan-1-yl)amino)benzenesulfonyl fluoride] was tested. Which “NanoBRET TE 293T.116 CRBN 24 hours IP nM” value did it give?
**A.** ** (<10 μM and >1 μM is **)

**Q.** `O=C1NC(=O)C2(c3ccc(S(=O)(=O)F)cc3)CC1C2` [Compound A-34, 4-(2,4-dioxo-3-azabicyclo[3.1.1]heptan-1-yl)benzenesulfonyl fluoride] was tested. Which “NanoBRET TE 293T.116 CRBN 24 hours IP nM” value did it give?
**A.** * (>=10 μM is *)

**Q.** How did the “NanoBRET TE 293T.116 CRBN 24 hours IP nM” value turn out when `O=C1CCC(c2ccc(N3CCNCC3)c(OS(=O)(=O)F)c2)C(=O)N1` (stereo not drawn) [Compound A-36, 5-(2,6-dioxopiperidin-3-yl)-2-(piperazin-1-yl)phenyl sulfurofluoridate] was run?
**A.** *** (<= 1 μM is ***)

Same assay, conditions: NanoBRET TE 293T.116 CRBN 2 hours IC50 nM, 2 hours incubation, 293T.116 cells

**Q.** How did the IC50 turn out when `O=C1CCC(Nc2ccc(C3CCNCC3)c(OS(=O)(=O)F)c2)C(=O)N1` (stereo not drawn) [Compound A-31, 5-((2,6-dioxopiperidin-3-yl)amino)-2-(piperidin-4-yl)phenyl sulfurofluoridate] was run?
**A.** < 1000 nM

**Q.** `O=C1NC(=O)C2(Nc3ccc(S(=O)(=O)F)cc3)CC1C2` [Compound A-33, 4-((2,4-dioxo-3-azabicyclo[3.1.1]heptan-1-yl)amino)benzenesulfonyl fluoride] was tested. Which IC50 did it give?
**A.** 1000 to 10000 nM

**Q.** Which IC50 does the source give for `O=C1NC(=O)C2(c3ccc(S(=O)(=O)F)cc3)CC1C2` [Compound A-34, 4-(2,4-dioxo-3-azabicyclo[3.1.1]heptan-1-yl)benzenesulfonyl fluoride] here?
**A.** 1000 to 10000 nM

**Q.** How did the IC50 turn out when `O=C1CCC(c2ccc(N3CCNCC3)c(OS(=O)(=O)F)c2)C(=O)N1` (stereo not drawn) [Compound A-36, 5-(2,6-dioxopiperidin-3-yl)-2-(piperazin-1-yl)phenyl sulfurofluoridate] was run?
**A.** < 1000 nM

Same assay, conditions: NanoBRET TE 293T.116 CRBN 6 hours IC50 nM, 6 hours incubation, 293T.116 cells

**Q.** For `O=C1CCC(Oc2ccc(S(=O)(=O)F)cn2)C(=O)N1` (stereo not drawn) [Compound A-9, 6-((2,6-dioxopiperidin-3-yl)oxy)pyridine-3-sulfonyl fluoride], which IC50 is on record?
**A.** 1000 to 10000 nM

**Q.** `O=C1CCC(Nc2ccc(C3CCNCC3)c(OS(=O)(=O)F)c2)C(=O)N1` (stereo not drawn) [Compound A-31, 5-((2,6-dioxopiperidin-3-yl)amino)-2-(piperidin-4-yl)phenyl sulfurofluoridate] was tested. Which IC50 did it give?
**A.** < 1000 nM

**Q.** `O=C1NC(=O)C2(Nc3ccc(S(=O)(=O)F)cc3)CC1C2` [Compound A-33, 4-((2,4-dioxo-3-azabicyclo[3.1.1]heptan-1-yl)amino)benzenesulfonyl fluoride] was tested. Which IC50 did it give?
**A.** 1000 to 10000 nM

**Q.** Which IC50 does the source give for `O=C1NC(=O)C2(c3ccc(S(=O)(=O)F)cc3)CC1C2` [Compound A-34, 4-(2,4-dioxo-3-azabicyclo[3.1.1]heptan-1-yl)benzenesulfonyl fluoride] here?
**A.** 1000 to 10000 nM

**Q.** For `O=C1CCC(c2ccc(N3CCNCC3)c(OS(=O)(=O)F)c2)C(=O)N1` (stereo not drawn) [Compound A-36, 5-(2,6-dioxopiperidin-3-yl)-2-(piperazin-1-yl)phenyl sulfurofluoridate], which IC50 is on record?
**A.** < 1000 nM

Same assay, conditions: NanoBRET TE 293T.116 CRBN 24 hours IC50 nM, 24 hours incubation, 293T.116 cells

**Q.** Which IC50 does the source give for `O=C1CCC(Oc2ccc(S(=O)(=O)F)cn2)C(=O)N1` (stereo not drawn) [Compound A-9, 6-((2,6-dioxopiperidin-3-yl)oxy)pyridine-3-sulfonyl fluoride] here?
**A.** > 10000 nM

**Q.** How did the IC50 turn out when `O=C1CCC(Nc2ccc(C3CCNCC3)c(OS(=O)(=O)F)c2)C(=O)N1` (stereo not drawn) [Compound A-31, 5-((2,6-dioxopiperidin-3-yl)amino)-2-(piperidin-4-yl)phenyl sulfurofluoridate] was run?
**A.** < 1000 nM

**Q.** How did the IC50 turn out when `O=C1NC(=O)C2(Nc3ccc(S(=O)(=O)F)cc3)CC1C2` [Compound A-33, 4-((2,4-dioxo-3-azabicyclo[3.1.1]heptan-1-yl)amino)benzenesulfonyl fluoride] was run?
**A.** 1000 to 10000 nM

**Q.** How did the IC50 turn out when `O=C1NC(=O)C2(c3ccc(S(=O)(=O)F)cc3)CC1C2` [Compound A-34, 4-(2,4-dioxo-3-azabicyclo[3.1.1]heptan-1-yl)benzenesulfonyl fluoride] was run?
**A.** > 10000 nM

**Q.** How did the IC50 turn out when `O=C1CCC(c2ccc(N3CCNCC3)c(OS(=O)(=O)F)c2)C(=O)N1` (stereo not drawn) [Compound A-36, 5-(2,6-dioxopiperidin-3-yl)-2-(piperazin-1-yl)phenyl sulfurofluoridate] was run?
**A.** < 1000 nM

Same assay, conditions: read-out: NanoBRET TE 293T.116 CRBN 2 hours Emax

**Q.** With `O=C1CCC(Nc2ccc(C3CCNCC3)c(OS(=O)(=O)F)c2)C(=O)N1` (stereo not drawn) [Compound A-31, 5-((2,6-dioxopiperidin-3-yl)amino)-2-(piperidin-4-yl)phenyl sulfurofluoridate] as the compound, how does the Emax read?
**A.** < 50%

**Q.** Which Emax does the source give for `O=C1NC(=O)C2(Nc3ccc(S(=O)(=O)F)cc3)CC1C2` [Compound A-33, 4-((2,4-dioxo-3-azabicyclo[3.1.1]heptan-1-yl)amino)benzenesulfonyl fluoride] here?
**A.** < 50%

**Q.** With `O=C1NC(=O)C2(c3ccc(S(=O)(=O)F)cc3)CC1C2` [Compound A-34, 4-(2,4-dioxo-3-azabicyclo[3.1.1]heptan-1-yl)benzenesulfonyl fluoride] as the compound, how does the Emax read?
**A.** < 50%

**Q.** How did the Emax turn out when `O=C1CCC(c2ccc(N3CCNCC3)c(OS(=O)(=O)F)c2)C(=O)N1` (stereo not drawn) [Compound A-36, 5-(2,6-dioxopiperidin-3-yl)-2-(piperazin-1-yl)phenyl sulfurofluoridate] was run?
**A.** < 50%

Same assay, conditions: read-out: NanoBRET TE 293T.116 CRBN 6 hours Emax

**Q.** `O=C1CCC(Oc2ccc(S(=O)(=O)F)cn2)C(=O)N1` (stereo not drawn) [Compound A-9, 6-((2,6-dioxopiperidin-3-yl)oxy)pyridine-3-sulfonyl fluoride] was tested. Which Emax did it give?
**A.** < 50%

**Q.** With `O=C1CCC(Nc2ccc(C3CCNCC3)c(OS(=O)(=O)F)c2)C(=O)N1` (stereo not drawn) [Compound A-31, 5-((2,6-dioxopiperidin-3-yl)amino)-2-(piperidin-4-yl)phenyl sulfurofluoridate] as the compound, how does the Emax read?
**A.** < 50%

**Q.** How did the Emax turn out when `O=C1NC(=O)C2(Nc3ccc(S(=O)(=O)F)cc3)CC1C2` [Compound A-33, 4-((2,4-dioxo-3-azabicyclo[3.1.1]heptan-1-yl)amino)benzenesulfonyl fluoride] was run?
**A.** < 50%

**Q.** With `O=C1NC(=O)C2(c3ccc(S(=O)(=O)F)cc3)CC1C2` [Compound A-34, 4-(2,4-dioxo-3-azabicyclo[3.1.1]heptan-1-yl)benzenesulfonyl fluoride] as the compound, how does the Emax read?
**A.** < 50%

**Q.** With `O=C1CCC(c2ccc(N3CCNCC3)c(OS(=O)(=O)F)c2)C(=O)N1` (stereo not drawn) [Compound A-36, 5-(2,6-dioxopiperidin-3-yl)-2-(piperazin-1-yl)phenyl sulfurofluoridate] as the compound, how does the Emax read?
**A.** < 50%

Same assay, conditions: read-out: NanoBRET TE 293T.116 CRBN 24 hours Emax

**Q.** With `O=C1CCC(Oc2ccc(S(=O)(=O)F)cn2)C(=O)N1` (stereo not drawn) [Compound A-9, 6-((2,6-dioxopiperidin-3-yl)oxy)pyridine-3-sulfonyl fluoride] as the compound, how does the Emax read?
**A.** 50 to 80%

**Q.** With `O=C1CCC(Nc2ccc(C3CCNCC3)c(OS(=O)(=O)F)c2)C(=O)N1` (stereo not drawn) [Compound A-31, 5-((2,6-dioxopiperidin-3-yl)amino)-2-(piperidin-4-yl)phenyl sulfurofluoridate] as the compound, how does the Emax read?
**A.** < 50%

**Q.** How did the Emax turn out when `O=C1NC(=O)C2(Nc3ccc(S(=O)(=O)F)cc3)CC1C2` [Compound A-33, 4-((2,4-dioxo-3-azabicyclo[3.1.1]heptan-1-yl)amino)benzenesulfonyl fluoride] was run?
**A.** < 50%

**Q.** `O=C1NC(=O)C2(c3ccc(S(=O)(=O)F)cc3)CC1C2` [Compound A-34, 4-(2,4-dioxo-3-azabicyclo[3.1.1]heptan-1-yl)benzenesulfonyl fluoride] was tested. Which Emax did it give?
**A.** > 80%

**Q.** How did the Emax turn out when `O=C1CCC(c2ccc(N3CCNCC3)c(OS(=O)(=O)F)c2)C(=O)N1` (stereo not drawn) [Compound A-36, 5-(2,6-dioxopiperidin-3-yl)-2-(piperazin-1-yl)phenyl sulfurofluoridate] was run?
**A.** < 50%
